Patent US20040005354A1, “Oral trimethobenzamide formulations and methods” (King Pharmaceuticals, Inc., priority 2002, published 2004)
Like-named read-outs stand apart in the source and are kept apart here.

Key:
[1] = in 48-72 hr; cited from earlier work
[2] = cited from earlier work
[3] = Safety assessment (adverse events, laboratory tests) in the four-way crossover study; format: in vivo, human (healthy subjects)
Description: Seventy-four healthy, non-smoking, male & female subjects, 18-65 years old were enrolled in this study. A total of 68 subjects completed all the requirements of the protocol. There were no enrollment violations. However, nine of the 74 subjects began the study during the third period of the initial group of subjects. All 74 subjects who received at least one dose of study medication were included in the safety analysis.
This study was a single center, randomized, open-label, 4-way crossover study in healthy subjects. Dosing was administered in the fasted state. Seventy-four (74) subjects were randomized into the study. All seventy-four subjects received one or more doses of study medication and are therefore included in the safety assessment. On Treatment Day 1 of the first treatment period, each subject was randomized to receive one of four possible study treatment sequences. The treatment groups consisted of the four treatments administered sequentially as DCAB, ADBC, BACD or CBDA. These treatments are shown below.
A signed informed consent was obtained from each subject. For screening purposes, the following procedures were required of each subject and were performed by the clinical site within 30 days prior to the study: a complete physical examination including a medical history, vital signs, clinical laboratory safety tests on blood and urine, medications taken prior to and during the study, and a serum pregnancy test for female subjects.
During the treatments, temperature, blood pressure, heart rate and respiratory rate were monitored as a safety measure. A physical examination and clinical laboratory tests were repeated at the completion of the study. Subjects were observed and questioned throughout the study for the occurrence of any adverse events.
A total of 28 adverse events (AEs) were experienced; 27 were treatment emergent. Twenty-one (21) of these were assessed as related to study treatment. All related AEs are known to occur with trimethobenzamide and were primarily mild or moderate in intensity. One (1) severe AE occurred in one subject which was judged as unrelated to study treatment-severe pharyngitis. […] A summary of treatment emergent adverse events (AEs) is presented in Table 6 using the preferred medical term.

[4] = 74 subjects, all four treatment periods

N-[2-(dimethylamino)-ethoxy]-3,4,5-trimethoxybenzamide hydrochloride [trimethobenzamide hydrochloride]
drug excreted unchanged in the urine [1]: 30%-50%
DURATION ([2]; IM): 2 to 3 h
ONSET ([2]; IM): 15 to 35 min
DURATION ([2]; PO): 3 to 4 h
ONSET ([2]; PO): 10 to 40 min
DURATION ([2]; Rect): 3 to 4 h
ONSET ([2]; Rect): 10 to 40 min
subjects with decreased red blood cell count at the end of treatment ([3]; 5 percent prior to treatment): 11%
subjects with low hematocrit at the end of treatment ([3]; 8 percent prior to treatment): 34%
AEs assessed as related to study treatment [3, 4]: 21
serious AEs [3, 4]: no serious AEs
total adverse events (AEs) experienced [3, 4]: 28
treatment emergent AEs [3, 4]: 27
dizziness, number ([3]; all four treatment periods): 3
neurologic complaints, number ([3]; all four treatment periods): 15
paresthesias, number ([3]; all four treatment periods): 3
hematocrit mean change ([3]; end of treatment vs prior): 2.3%
hemoglobin mean change ([3]; end of treatment vs prior): 0.6 g/dL
red blood cell count mean change ([3]; end of treatment vs prior): 2e+11 L⁻¹
overall safety and tolerability ([3]; in vivo): safe and well tolerated
subjects with normal hemoglobin prior to treatment who had low hemoglobin at the end of treatment ([3]; in vivo): 13%
headaches, number ([3]; seen in a total of 7 subjects): 8
ABDOMINAL PAIN, subjects % ([3]; sequence A D B C (N = 20)): 5.0%
ABDOMINAL PAIN, subjects n ([3]; sequence A D B C (N = 20)): 1
CONJUNCTIVITIS, subjects % ([3]; sequence A D B C (N = 20)): 5.0%
CONJUNCTIVITIS, subjects n ([3]; sequence A D B C (N = 20)): 1
DIARRHEA, subjects % ([3]; sequence A D B C (N = 20)): 0.0%
DIARRHEA, subjects n ([3]; sequence A D B C (N = 20)): 0
DIZZINESS, subjects % ([3]; sequence A D B C (N = 20)): 15.0%
DIZZINESS, subjects n ([3]; sequence A D B C (N = 20)): 3
EDEMA, PALMAR, subjects % ([3]; sequence A D B C (N = 20)): 5.0%
EDEMA, PALMAR, subjects n ([3]; sequence A D B C (N = 20)): 1
ERYTHEMA, EXTERNAL NOSE, subjects % ([3]; sequence A D B C (N = 20)): 0.0%
ERYTHEMA, EXTERNAL NOSE, subjects n ([3]; sequence A D B C (N = 20)): 0
ERYTHEMA, PALMAR, subjects % ([3]; sequence A D B C (N = 20)): 5.0%
ERYTHEMA, PALMAR, subjects n ([3]; sequence A D B C (N = 20)): 1
HEADACHE, subjects % ([3]; sequence A D B C (N = 20)): 5.0%
HEADACHE, subjects n ([3]; sequence A D B C (N = 20)): 1
HYPOTONIA, subjects % ([3]; sequence A D B C (N = 20)): 0.0%
HYPOTONIA, subjects n ([3]; sequence A D B C (N = 20)): 0
INJECTION SITE REACTION, subjects % ([3]; sequence A D B C (N = 20)): 0.0%
INJECTION SITE REACTION, subjects n ([3]; sequence A D B C (N = 20)): 0
LARYNGISMUS, subjects % ([3]; sequence A D B C (N = 20)): 0.0%
LARYNGISMUS, subjects n ([3]; sequence A D B C (N = 20)): 0
LEG CRAMPS, subjects % ([3]; sequence A D B C (N = 20)): 0.0%
LEG CRAMPS, subjects n ([3]; sequence A D B C (N = 20)): 0
NAUSEA AND VOMITING, subjects % ([3]; sequence A D B C (N = 20)): 5.0%
NAUSEA AND VOMITING, subjects n ([3]; sequence A D B C (N = 20)): 1
NAUSEA, subjects % ([3]; sequence A D B C (N = 20)): 5.0%
NAUSEA, subjects n ([3]; sequence A D B C (N = 20)): 1
Number of Subject With At Least one AE, % ([3]; sequence A D B C (N = 20)): 25.0%
Number of Subject With No AE, % ([3]; sequence A D B C (N = 20)): 75.0%
PARESTHESIA, subjects % ([3]; sequence A D B C (N = 20)): 0.0%
PARESTHESIA, subjects n ([3]; sequence A D B C (N = 20)): 0
PHARYNGITIS, subjects % ([3]; sequence A D B C (N = 20)): 0.0%
PHARYNGITIS, subjects n ([3]; sequence A D B C (N = 20)): 0
RASH, subjects % ([3]; sequence A D B C (N = 20)): 0.0%
RASH, subjects n ([3]; sequence A D B C (N = 20)): 0
ABDOMINAL PAIN, subjects % ([3]; sequence B A C D (N = 18)): 0.0%
ABDOMINAL PAIN, subjects n ([3]; sequence B A C D (N = 18)): 0
CONJUNCTIVITIS, subjects % ([3]; sequence B A C D (N = 18)): 0.0%
CONJUNCTIVITIS, subjects n ([3]; sequence B A C D (N = 18)): 0
DIARRHEA, subjects % ([3]; sequence B A C D (N = 18)): 0.0%
DIARRHEA, subjects n ([3]; sequence B A C D (N = 18)): 0
DIZZINESS, subjects % ([3]; sequence B A C D (N = 18)): 0.0%
DIZZINESS, subjects n ([3]; sequence B A C D (N = 18)): 0
EDEMA, PALMAR, subjects % ([3]; sequence B A C D (N = 18)): 0.0%
EDEMA, PALMAR, subjects n ([3]; sequence B A C D (N = 18)): 0
ERYTHEMA, EXTERNAL NOSE, subjects % ([3]; sequence B A C D (N = 18)): 0.0%
ERYTHEMA, EXTERNAL NOSE, subjects n ([3]; sequence B A C D (N = 18)): 0
ERYTHEMA, PALMAR, subjects % ([3]; sequence B A C D (N = 18)): 0.0%
ERYTHEMA, PALMAR, subjects n ([3]; sequence B A C D (N = 18)): 0
HEADACHE, subjects % ([3]; sequence B A C D (N = 18)): 0.0%
HEADACHE, subjects n ([3]; sequence B A C D (N = 18)): 0
HYPOTONIA, subjects % ([3]; sequence B A C D (N = 18)): 0.0%
HYPOTONIA, subjects n ([3]; sequence B A C D (N = 18)): 0
INJECTION SITE REACTION, subjects % ([3]; sequence B A C D (N = 18)): 5.6%
INJECTION SITE REACTION, subjects n ([3]; sequence B A C D (N = 18)): 1
LARYNGISMUS, subjects % ([3]; sequence B A C D (N = 18)): 5.6%
LARYNGISMUS, subjects n ([3]; sequence B A C D (N = 18)): 1
LEG CRAMPS, subjects % ([3]; sequence B A C D (N = 18)): 0.0%
LEG CRAMPS, subjects n ([3]; sequence B A C D (N = 18)): 0
NAUSEA AND VOMITING, subjects % ([3]; sequence B A C D (N = 18)): 0.0%
